# According to paper PMC4669685, “Peptides derived from the dependence receptor ALK are proapoptotic for ALK-positive tumors” (Cell Death & Disease, 2015):
# Where a SMILES comes first, the peptide text is derived from it. The star is where a group is joined. Myristoyl = CCCCCCCCCCCCCC(=O)*
# Tests used:
# Type in all cases: cell-based, human
# [1] = test system: Cost ALCL cells (NPM–ALK); assay: Cell viability assay (CellTiterGlo, ATP content); conditions: increasing doses, 48 h
# Experimental: (§1) At the end of incubation, cell viability was assessed by measuring the ATP content of wells using the luminescence-based CellTiterGlo assay (Promega) with a Berthold Mithras (http://www.berthold.com) plate reader. Each culture condition was assayed in triplicate.
# [2] = test system: SH-SY5Y neuroblastoma cells (ALK-F1174L); assay: Cell viability assay (CellTiterGlo, ATP content); conditions: increasing doses, 48 h
# Experimental: as §1
# caspase 3 in Cost cells = assay: Western blot of caspase 3 cleavage; conditions: Cost cells treated 6 h; P36 10 μM, doxorubicin 2 μM; compared with culture medium
# Experimental: Cells were washed once with PBS, pelleted, and extracted in RIPA buffer (150 mM NaCl, 20 mM Tris-HCl, pH 7.7, 4 mM EDTA, 0.5% Triton X-100) containing 10 μg/ml leupeptin, 2 μg/ml aprotinin, 1 mM 4-2-aminoethyl-benzenesulfonyl fluoride, 1 mM sodium orthovanadate, and 4 mM sodium fluoride for 30 min on ice. Cell extracts were either centrifuged at 10 000 × g for 20 min at 4 °C and the supernatant recovered, or sonicated for better extraction of nuclear proteins. The protein content was quantified using the Bio-Rad (www.biorad.com) Bradford protein assay. For western blotting, total cell proteins were subjected to SDS-polyacrylamide gel electrophoresis (SDS-PAGE) in a 4–12% bis/tris acrylamide (Novex NuPAGE, Invitrogen) gradient gel using the Nupage system with Mops SDS buffer under reducing conditions and transferred for 3 h at 60 V onto a nitrocellulose membrane. The blots were hybridized with the following primary antibodies:
# ZAL4 anti-human ALK rabbit monoclonal antibody (1/200, Invitrogen), phospho-ALK (Y1604) (1/1000, #3341, Cell Signaling Technology, www.cellsignal.com) rabbit antiserum, mouse monoclonal anti-caspase 3 (1/200, sc-7148, Santa Cruz Biotechnologies, www.scbt.com), rabbit polyclonal anti-p53 (1/500, #554167, BD Pharmingen, www.bdbiosciences.com) and rabbit polyclonal anti-GAPDH (1/2000, Millipore, www.millipore.com) antibodies. […]
SMILES,effect on cell viability (cytotoxicity) [1],effect on cell viability (cytotoxicity) [2],caspase 3 cleavage (western blot) (caspase 3 in Cost cells)
CCCCCCCCCCCCCC(=O)N[C@@H](CC(N)=O)C(=O)N[C@H](C(=O)N[C@H](C(=O)N[C@@H](CC(C)C)C(=O)N[C@H](C(=O)N[C@@H](CCCNC(=N)N)C(=O)NCC(=O)N[C@@H](CC(C)C)C(=O)NCC(=O)N[C@@H](Cc1c[nH]cn1)C(=O)NCC(=O)N[C@@H](C)C(N)=O)[C@@H](C)CC)[C@@H](C)O)[C@@H](C)CC [P12-5] (Myristoyl-NITLIRGLGHGA-NH2),dose-dependent cytotoxicity,–,–
CCCCCCCCCCCCCC(=O)N[C@@H](CCC(=O)O)C(=O)NCC(=O)N[C@@H](CC(C)C)C(=O)N[C@@H](CC(C)C)C(=O)N[C@@H](Cc1ccccc1)C(=O)N[C@H](C(=O)N[C@@H](Cc1ccc(O)cc1)C(=O)N[C@@H](Cc1c[nH]cn1)C(=O)N[C@H](C(=O)N[C@H](C(=O)N[C@@H](CCCCN)C(=O)N[C@@H](CCCNC(=N)N)C(=O)N[C@@H](CC(=O)O)C(=O)N[C@@H](Cc1ccc(O)cc1)C(=O)NCC(=O)N[C@@H](CC(N)=O)C(=O)N[C@@H](CC(N)=O)C(=O)N[C@@H](CC(C)C)C(=O)N[C@@H](C)C(=O)N[C@@H](CC(=O)O)C(=O)N[C@@H](CO)C(=O)N[C@H](C(=O)NCC(=O)N1CCC[C@H]1C(=O)NCC(=O)N[C@@H](CC(N)=O)C(=O)N[C@H](C(=O)N[C@@H](CO)C(=O)N[C@@H](C)C(=O)N1CCC[C@H]1C(=O)N[C@@H](CO)C(=O)N[C@H](C(=O)N[C@@H](CS)C(=O)N[C@@H](CCCCN)C(=O)N[C@@H](CCCNC(=N)N)C(=O)N[C@@H](CCCCN)C(N)=O)[C@@H](C)CC)[C@@H](C)O)[C@@H](C)CC)[C@@H](C)O)C(C)C)[C@@H](C)CC [P36scr] (Myristoyl-EGLLFIYHVTKRDYGNNLADSIGPGNTSAPSICKRK-NH2),failed to affect,failed to affect,–
CCCCCCCCCCCCCC(=O)N[C@@H](CC(=O)O)C(=O)N[C@@H](Cc1ccc(O)cc1)C(=O)N[C@@H](CC(N)=O)C(=O)N1CCC[C@H]1C(=O)N[C@@H](CC(N)=O)C(=O)N[C@@H](Cc1ccc(O)cc1)C(=O)N[C@@H](CS)C(=O)N[C@@H](Cc1ccccc1)C(=O)N[C@@H](C)C(=O)NCC(=O)N[C@@H](CCCCN)C(=O)N[C@H](C(N)=O)[C@@H](C)O [P12-1] (Myristoyl-DYNPNYCFAGKT-NH2),no effect,–,–
CCCCCCCCCCCCCC(=O)N[C@@H](CCCCN)C(=O)N[C@@H](CCC(=O)O)C(=O)N[C@H](C(=O)N1CCC[C@H]1C(=O)N[C@@H](CCCNC(=N)N)C(=O)N[C@@H](CCCCN)C(=O)N[C@@H](CC(N)=O)C(=O)N[C@H](C(=O)N[C@H](C(=O)N[C@@H](CC(C)C)C(=O)N[C@H](C(=O)N[C@@H](CCCNC(=N)N)C(N)=O)[C@@H](C)CC)[C@@H](C)O)[C@@H](C)CC)C(C)C [P12-4] (Myristoyl-KEVPRKNITLIR-NH2),no effect,–,–
COc1cccc2c1C(=O)c1c(O)c3c(c(O)c1C2=O)C[C@@](O)(C(=O)CO)C[C@@H]3O[C@H]1C[C@H](N)[C@H](O)[C@H](C)O1 [doxorubicin],–,–,increased caspase 3 cleavage
CCCCCCCCCCCCCC(=O)N[C@@H](CO)C(=O)N[C@@H](CO)C(=O)N[C@H](C(=O)N[C@@H](CO)C(=O)N[C@@H](CC(=O)O)C(=O)N[C@@H](CC(C)C)C(=O)N[C@@H](CCCCN)C(=O)N[C@@H](CCC(=O)O)C(=O)N[C@H](C(=O)N1CCC[C@H]1C(=O)N[C@@H](CCCNC(=N)N)C(=O)N[C@@H](CCCCN)C(N)=O)C(C)C)[C@@H](C)CC [P12-3] (Myristoyl-SSISDLKEVPRK-NH2),dose-dependent cytotoxicity,–,–
